# Experiments:
# human TRPV1 receptors = biological target: T1, human TRPV1 receptors (Homo sapiens, UniProt Q8NER1); assay: Inhibition of capsaicin-stimulated Ca2+ influx (Fluo-3, FDSS-3000) in CHO-K1 cells stably expressing human TRPV1 receptors; format: cell-based; settings: CHO-K1 cells transfected with human TRPV1; capsaicin stimulation; Fluo-3 fluorescence
# T1 construct: expressed in transfected cells; host or cells: CHO-K1
# Description: CHO-K1 cells were transfected with human TRPV1 receptors and a cell culture stably expressing the receptor was seeded on a medium of alpha-MEM containing FBS(10%), HEPES (20 mM), geneticin (1 mg/mL) and antibiotic-antimycotic mixed solution(1%) in 96-well plates, and incubated at 37° C. and 5% CO2 for 2-3 days.
# The medium was then substituted with Lording Buffer (20 mM HEPES, 115 mM NaCl, 5.4 mM KCl 0.8 mM MgCl2, 1.8 mM CaCl2, 13.8 mM D-glucose, 2.5 mM probenecid, pH 7.4) containing Fluo-3 AM (5 μM) and incubated at 37° C. and 5% CO2 for 1 hour. The test compounds were diluted to different concentrations and added to the plates after the incubated culture was washed with Wash Buffer (20 mM HEPES, 115 mM NaCl, 5.4 mM KCl 0.8 mM MgCl2, 5.0 mM CaCl2, 13.8 mM D-glucose, 2.5 mM probenecid, 0.1% BSA, pH 7.4) and placed at room temperature for 15 minutes.
# The plate was set up in Functional Drug Screening System(FDSS)-3000(Hamamatsu Photonics K.K.) and amounts of Ca^2+ influx before and after capsaicin-stimulation were measured through changes in the fluorescence intensity of Fluo-3.
# An inhibitory activity was evaluated by measuring fluorescence intensity in the presence of various concentrations of the test compounds and calculating their % inhibition on the basis that the maximum fluorescence intensity is 100% inhibition when stimulated by Wash Buffer, and 0% inhibition when stimulated by capsaicin
# Data analysis and calculation of IC50 values were performed with Excel(Microsoft Corporation) and XLfit(idbs).
# T1 sequence (Q8NER1 whole entry): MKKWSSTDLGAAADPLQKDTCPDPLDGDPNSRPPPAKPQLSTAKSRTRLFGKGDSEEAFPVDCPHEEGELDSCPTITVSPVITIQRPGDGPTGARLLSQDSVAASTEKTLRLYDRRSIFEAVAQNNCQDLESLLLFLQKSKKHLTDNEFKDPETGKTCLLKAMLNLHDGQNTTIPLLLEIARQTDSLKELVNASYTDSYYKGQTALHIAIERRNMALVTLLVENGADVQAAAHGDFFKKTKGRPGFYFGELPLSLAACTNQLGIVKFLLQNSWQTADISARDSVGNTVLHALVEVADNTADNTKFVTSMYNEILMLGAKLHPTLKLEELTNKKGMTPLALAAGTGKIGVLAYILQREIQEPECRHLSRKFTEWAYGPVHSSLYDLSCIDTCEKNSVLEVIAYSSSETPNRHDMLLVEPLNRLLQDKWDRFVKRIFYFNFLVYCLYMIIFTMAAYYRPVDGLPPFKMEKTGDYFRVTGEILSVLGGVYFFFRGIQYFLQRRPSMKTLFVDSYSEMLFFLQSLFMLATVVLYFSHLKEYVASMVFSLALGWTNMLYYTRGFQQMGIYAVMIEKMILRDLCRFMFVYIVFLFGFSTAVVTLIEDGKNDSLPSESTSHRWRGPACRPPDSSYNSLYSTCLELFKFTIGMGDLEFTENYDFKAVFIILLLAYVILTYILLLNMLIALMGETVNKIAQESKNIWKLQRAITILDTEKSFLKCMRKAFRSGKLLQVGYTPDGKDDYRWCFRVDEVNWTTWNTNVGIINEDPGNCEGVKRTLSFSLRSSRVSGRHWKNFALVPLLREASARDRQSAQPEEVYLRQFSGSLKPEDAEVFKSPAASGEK
SMILES,IC50 (human TRPV1 receptors) [nM],melting point [°C]
CC(C)(C)c1ccc(NC(=O)c2ccc(C3(C)NCCO3)cc2)cc1 (centres unmarked) [Ic-1],250,138 to 139
CC(C)(C)c1ccc(NC(=O)c2ccc(C3NCCS3)cc2)cc1 (centres unmarked) [Ib-1],210,119 to 120
"CC(C)(C)c1ccc(NC(=O)c2ccc(C3(C)OCCCO3)cc2)cc1 [Ia-2, N-(4-tert-butylphenyl)-4-(2-methyl-1,3-dioxane-2-yl)benzamide]",297,148 to 149
CC(C)(C)c1ccc(NC(=O)c2ccc(C3(C)OCCO3)cc2)cc1 [Ie-2],230,180 to 189
CC(C)(C)c1ccc(NC(=O)c2ccc(C3(C)NCCS3)cc2)cc1 (centres unmarked) [Ib-2],190,152 to 153
CC(C)(C)c1ccc(NC(=O)c2ccc(C3OCCCO3)cc2)cc1 [Ia-1],176,165 to 166

# The remaining lines, values ahead:
IC50 (human TRPV1 receptors) [nM],melting point [°C],SMILES
6,176 to 177,"CC(C)(C)c1ccc(NC(=O)c2ccc(C3=NCCS3)cc2)cc1 [If-1, N-(4-tert-butylphenyl)-4-(2-thiazolinyl)benzamide]"
163,154 to 155,"CON=C(C)c1ccc(C(=O)Nc2ccc(C(C)(C)C)cc2)cc1 [Ij-4, N-(4-tert-butylphenyl)-4-(1-methoxyiminoethyl)benzamide]"
–,> 300,"CC(C)(C)c1ccc(NC(=O)c2ccc(C3NOC(=O)N3)cc2)cc1 (centres unmarked) [Ih-1, N-(4-tert-butylphenyl)-4-(5-oxo-1,2,4-oxadiazolidine-3-yl)benzamide]"

# From patent publication US20090163549A1, “Pharmaceutical Composition Comprising an Amide Derivative” (priority 2005, published 2009)
